Holding throughout (format): cell-based
In assay [1] the test system is HL-60 cells (human acute myeloid leukemia cells). The assay can be described thus: Proliferation assay (alamarBlue) with HL-60 cells. Particulars: Homo sapiens, Table 30, compound at 20 μM, read-out: Activity Range (AVEw, weighted arithmetic mean of normalized fluorescence intensity, DMSO = 1.0). The text has this:
(§1) The antiproliferative activities of compounds falling under formula (Ia), (Tb) and (Ic), respectively, were investigated on cells or cell lines originating from a disorder of the haematopoietic system, including the myeloid cell compartment and the lymphoid cell compartment (T-cells and B-cells), the neuroendocrine system, the cervix, the breast, the ovaries, the lung, the gastrointestinal tract, and the mucosal epithelium, as well as from the skin epithelium and from the muscle. To this end, HL-60 cells, NB-4 cells, HH cells, RPMI-8402 cells, TANOUE cells, TT cells, HeLa cells, MDA-MB-231 cells, FU-OV-1 cells, LOU-NH91 cells, 23132/87 cells, CAL-27 cells, BHY cells, SCC-25 cells, A-431 cells, human primary epidermal keratinocytes (HPEK), and C2C12 cells were seeded into 96-well plates suitable for fluorescence assays (CORNING #3598) at following initial cell numbers: 1000 cells per well for HL-60; 1000 cells per well for NB-4; 5000 cells per well for HH; 5000 cells per well for RPMI-8402; 1500 cells per well for TANOUE; 9000 cells per well for TT; 2000 cells per well for HeLa; 3000 cells per well for MDA-MB-231; 3000 cells per well for FU-OV-1; 4000 cells per well for LOU-NH91; 2000 cells per well for 23132/87; 2000 cells per well for CAL-27; 1500 cells per well for BHY; 1500 cells per well for SCC-25; 700 cells per well for A-431; 1000 cells per well for HPEK; 500 cells per well for C2-C12. The cells were treated with compounds at indicated final concentrations (diluted from the 1000× stock-solutions in DMSO to a final DMSO concentration of 0.1% v/v in H2O (Water For Injection, WFI, Fisherscientific #10378939)) or with the empty carrier DMSO at 0.1% v/v as control for 5 days. At day 5 after starting the treatments the cells were subjected to the alamarBlue® Proliferation Assay (Bio-Rad Serotec GmbH, BUF012B) according to the protocol of the manufacturer. The readout was taken with a multi-well plate-reader in the fluorescence mode with applying a filter for excitation at 560 nm (band width 10 nm) and for emission at 590 nm (band width 10 nm). Control treatments for growth inhibition with commercial compounds such as Methotrexate (MTREX) and Resveratrol (RES) were included on every plate. Some of the test compounds of the present invention were obtained and applied as their salts. According cases are indicated in the column “Specification” in Table 30 to Table 62 and by their sum formula in Table 63.
(§2) The assays were performed in duplicate or more replicates of independent single experiments each containing a six-fold replicate for every condition. For every individual plate, the measured fluorescence intensity values of the conditions with compound treatment were normalized against the corresponding equally weighted arithmetic mean of the fluorescence intensity values of the six DMSO treated control wells in order to obtain the relative values to a baseline level of 1.0.
(§3) Two independent outlier analyses were performed according to the methods by Peirce and Chauvenet (Ross, Journal of Engineering Technology 2003, 1-12). Outliers confirmed by at least one of the methods were excluded from the calculations but not more than one value out of six per compound within a single experiment. The weighted arithmetic mean (here abbreviated as AVEw) for each compound was calculated from the normalized values over all independent replicates of the single experiments comprising the six replicates each. The corresponding standard deviation for the weighted arithmetic mean was calculated according to the method described by Bronstein et al. (Bronstein, Semendjajew, Musiol, Muhlig, Taschenbuch der Mathematik, 5th edition 2001 (German), publisher: Verlag Harri Deutsch, Frankfurt am Main and Thun) and was combined with the Gauβ′ error propagation associated with the performed calculation for the normalization. The resulting standard deviation is herein referred to as “combined standard deviation”. […]
Background: The colour change of resazurin is a common sign of viable cells or microbes.

Assay [2] deals with A-431 cells (human epidermoid squamous cell carcinoma cells). The assay can be described thus: Proliferation assay (alamarBlue) with A-431 cells. The following applies: Homo sapiens, 20 μM, read-out: Activity Range: weighted arithmetic mean (AVEw) of normalized fluorescence intensity relative to DMSO basis level 1.0.
Source text: as §1, §2, §3

The test system of assay [3] is RPMI-8402 cells (human T cell acute lymphoblastic leukemia cells). The assay is described as follows: Proliferation assay (alamarBlue) with RPMI-8402 cells. Particulars: Homo sapiens, read-out: Activity Range: weighted arithmetic mean (AVEw) of normalized fluorescence intensity relative to DMSO basis level 1.0.
Source text: as §1, §2, §3

The test system of assay [4] is HPEKp cells (human epidermal keratinocyte progenitors, pooled). The assay is described as follows: Proliferation assay (alamarBlue) with HPEKp cells. Particulars: compound at 10 μM, read-out: Activity Range: weighted arithmetic mean (AVEw) of normalized fluorescence intensity, relative to DMSO basis level 1.0.
Source text: as §1, §2, §3

Assay [5] relates to BHY cells (human oral squamous cell carcinoma cells). The assay can be described thus: Proliferation assay (alamarBlue) with BHY cells. Particulars: read-out: Activity Range: weighted arithmetic mean (AVEw) of normalized fluorescence intensity relative to DMSO basis level 1.0.
Source text: as §1, §2, §3

For assay [6], the system named is MDA-MB-231 cells (human breast carcinoma cells). The assay can be described thus: Proliferation assay (alamarBlue) with MDA-MB-231 cells. The following applies: Homo sapiens, read-out: Activity Range: weighted arithmetic mean (AVEw) of normalized fluorescence intensity relative to DMSO basis level 1.0.
Source text: as §1, §2, §3

Assay [7] concerns C2C12 cells (murine myoblast cells). The assay is described as follows: Proliferation assay (alamarBlue) with C2C12 cells. The following applies: Mus musculus, compound at 20 μM, read-out: Activity Range: weighted arithmetic mean (AVEw) of normalized fluorescence intensity, relative to DMSO basis level 1.0.
Source text: as §1, §2, §3

Assay [8] relates to TANOUE cells (human B cell leukemia cells). The assay is described as follows: Proliferation assay (alamarBlue) with TANOUE cells. Particulars: Homo sapiens, B-cell, read-out: Activity Range: weighted arithmetic mean (AVEw) of normalized fluorescence intensity relative to DMSO basis level 1.0.
Source text: as §1, §2, §3

The subject of assay [9] is SCC-25 cells (human tongue squamous cell carcinoma cells). The assay is described as follows: Proliferation assay (alamarBlue) with SCC-25 cells. Particulars: Homo sapiens, read-out: Activity Range: weighted arithmetic mean (AVEw) of normalized fluorescence intensity relative to DMSO basis level 1.0.
Source text: as §1, §2, §3

The subject of assay [10] is NB-4 cells (human acute promyelocytic leukemia cells). The assay is described as follows: Proliferation assay (alamarBlue) with NB-4 cells. Particulars: Homo sapiens, Table 32, compound at 20 μM, read-out: Activity Range (AVEw, weighted arithmetic mean of normalized fluorescence intensity, DMSO = 1.0).
Source text: as §1, §2, §3

Assay [11] deals with CAL-27 cells (human tongue squamous cell carcinoma cells). The assay can be described thus: Proliferation assay (alamarBlue) with CAL-27 cells. Particulars: read-out: Activity Range: weighted arithmetic mean (AVEw) of normalized fluorescence intensity relative to DMSO basis level 1.0.
Source text: as §1, §2, §3

Assay [12] has as its system HH cells (human cutaneous T-cell lymphoma cells). The assay can be described thus: Proliferation assay (alamarBlue) with HH cells. Particulars: Table 34, compound at 20 μM, read-out: Activity Range (AVEw, weighted arithmetic mean of normalized fluorescence intensity, DMSO = 1.0).
Source text: as §1, §2, §3

For assay [13], the system named is 23132/87 cells (human gastric adenocarcinoma cells). The assay is described as follows: Proliferation assay (alamarBlue) with 23132/87 cells. The following applies: read-out: Activity Range: weighted arithmetic mean (AVEw) of normalized fluorescence intensity relative to DMSO basis level 1.0.
Source text: as §1, §2, §3

The values below come from patent US20240140895A1, “NOVEL AROMATIC MOLECULES” (XENIOPRO GmbH, priority 2018, published 2024).

Molecules are shown by their SMILES.

As for `OCc1ccc(Oc2ccc(C3CCCCC3)cc2)cc1` [XPA-0006, (4-(4-cyclohexylphenoxy)phenyl)methanol], the activity at 20 µM in assay [1] was in the range of 80 to 90%; in assay [2], 70 to 80%; in assay [3], 60 to 70%; in assay [5] it was 80 to 90%; in [6], 60 to 70%. Besides, the activity at 10 µM in assay [4] was 40 to 60%.
Turning to `O=Cc1ccc(Oc2ccc(C34CC5CC(CC(C5)C3)C4)cc2)cc1` [XPA-0028, 4-(4-(adamantan-1-yl)phenoxy)benzaldehyde], the activity at 20 µM in assay [7] is 60 to 70%; in assay [8] it was 0 to 20%; in assay [1], 40 to 60%; in assay [2], 80 to 90%; in [3] it was 40 to 60%; in assay [6] it was 70 to 80%. The activity at 20 µM in [9] was in the range of 80 to 90%; in [10], 40 to 60%. For the same compound, in [4], the activity at 10 µM lay in the range of 0 to 20%.
Regarding `CN1CCC(c2ccc(Oc3ccc(C(=O)O)cc3)cc2)CC1` [XPA-0036, 4-(4-(1-methylpiperidin-4-yl)phenoxy)benzoic acid], the activity at 20 µM in assay [6] fell in the range of 80 to 90%.
On to `CCOC(=O)c1ccc(Oc2ccc(CCN(C)C)cc2)cc1` [XPA-0060, ethyl 4-(4-(2-(dimethylamino)ethyl)phenoxy)benzoate], for which the activity at 20 µM lay in the range of 40 to 60% in assay [7]; 80 to 90% in [2]; 40 to 60% in assay [3]; 70 to 80% in assay [5]; 40 to 60% in assay [6]; 20 to 40% in assay [9]. For the same compound, the values for the activity at 20 µM in assay [10], in assay [11] and in assay [12] were 80 to 90%, 40 to 60% and 60 to 70%, respectively. Moreover, in assay [4], the activity at 10 µM lay within 20 to 40%.
Turning to `CCOC(=O)c1ccc(Oc2ccc(C3CCOCC3)cc2)cc1` [XPA-0063, ethyl 4-(4-(tetrahydro-2H-pyran-4-yl)phenoxy)benzoate], the activity at 20 µM in [8], in assay [3] and in assay [6] was 80 to 90% each time.
Regarding `CCOC(=O)c1ccc(Oc2ccc(C3CCN(C)CC3)cc2)cc1` [XPA-0064, ethyl 4-(4-(1-methylpiperidin-4-yl)phenoxy)benzoate], the activity at 20 µM is 0 to 20% in assay [7]; 0 to 20% in assay [8]; 70 to 80% in [1]; 0 to 20% in [2]; 0 to 20% in assay [3]; 0 to 20% in [5]. The activity at 20 µM is 70 to 80% in assay [13]; 40 to 60% in assay [6]; 0 to 20% in [9]; 20 to 40% in [10]; 0 to 20% in assay [11]; 40 to 60% in assay [12]. Also, the activity at 10 µM in [4] was 0 to 20%.
As for `OC1(c2ccc(Oc3ccc(C45CC6CC(CC(C6)C4)C5)cc3)cc2)COC1` [XPA-0140, 3-(4-(4-((3r,5r,7r)-adamantan-1-yl)phenoxy)phenyl)oxetan-3-ol], the activity at 20 µM was in the range of 70 to 80% in assay [7]; 0 to 20% in [8]; 0 to 20% in assay [1]; 40 to 60% in assay [2]; 20 to 40% in [3]; 70 to 80% in [5]. Further, the activity at 20 µM in [13] lay within 70 to 80%; in assay [6] it was 20 to 40%; in assay [9], 20 to 40%; in assay [10], 60 to 70%; in [11], 20 to 40%; in [12] it was 70 to 80%. Further, the activity at 10 µM in [4] was 0 to 20%.
`COC1(c2ccc(Oc3ccc(C4CCCCC4)cc3)cc2)COC1` [XPA-0146, 3-(4-(4-cyclohexylphenoxy)phenyl)-3-methoxyoxetane]: the activity at 20 µM in [8] was 0 to 20%; in [1], 20 to 40%; in assay [2] it was 20 to 40%; in [3] it was 20 to 40%; in assay [5], 70 to 80%; in assay [13], 60 to 70%. Also, the activity at 20 µM in assay [6] was 0 to 20%; in [10], 80 to 90%; in assay [11], 20 to 40%. For the same compound, in assay [4], the activity at 10 µM was 60 to 70%.
Regarding `C=Cc1cc(C2CCCCC2)ccc1Oc1ccc(C(=O)OCC)cc1` [XPA-1284, ethyl 4-(4-cyclohexyl-2-vinylphenoxy)benzoate], the activity at 20 µM was 20 to 40% in assay [7]; 0 to 20% in assay [8]; 0 to 20% in [1]; 40 to 60% in [2]; 20 to 40% in assay [3]; 70 to 80% in [13]. The activity at 20 µM was in the range of 20 to 40% in [6]; 70 to 80% in assay [9]; 20 to 40% in [10]; 60 to 70% in assay [11]; 60 to 70% in assay [12]. For the same compound, the activity at 10 µM in assay [4] lay in the range of 0 to 20%.
As to `CCOC(=O)c1ccc(Oc2ccc(C3CCCCC3)cc2C2CO2)cc1` (centres unmarked) [XPA-1290, ethyl 4-(4-cyclohexyl-2-(oxiran-2-yl)phenoxy)benzoate], the activity at 20 µM in [8] lay in the range of 80 to 90%; in assay [6], 70 to 80%. The activity at 10 µM in assay [4] lay within 0 to 20%.
For `CCOC(=O)c1ccc(Oc2ccc(C3CCCCC3)cc2C2CC2)cc1` [XPA-1295, ethyl 4-(4-cyclohexyl-2-cyclopropylphenoxy)benzoate], the activity at 10 µM in assay [4] is 70 to 80%.
Turning to `CCOC(=O)c1ncc(Oc2ccc(C34CC5CC(CC(C5)C3)C4)cc2)cn1` [XPA-1303, ethyl 5-(4-((3r,5r,7r)-adamantan-1-yl)phenoxy)pyrimidine-2-carboxylate], the activity at 20 µM in [8] and in [3] was 80 to 90% each time.
